Experimental data as given in patent US10857105B2, “Compounds and compositions for intracellular delivery of therapeutic agents” (ModernaTX, Inc., priority 2017, dated 2020).

How the values were obtained:
[1] = Encapsulation efficiency of RNA in nanoparticle compositions (RIBOGREEN assay); assay type: physicochemical; conditions: for % EE: compositions for subcutaneous administration
Outline: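 Lipid nanoparticles (ionisable lipid:DSPC:cholesterol:PEG-DMG 50:10:38.5:1.5 mol %) carrying N1-methylpseudouridine luciferase or hEPO mRNA diluted to about 5 μg/mL in TE, pH 7.5, with or without 2% Triton X-100, 15 min at 37° C. RiboGreen fluorescence (ex ~480, em ~520 nm) blank-subtracted; free RNA = intact/disrupted signal.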

modified luciferase = assay: Luciferase expression in liver, lung, spleen and femur 6 hours after intravenous administration to mice; assay type: in vivo; conditions: 6 hours after intravenous 0.5 mpk, mice
Outline: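 Mice (n=3) got a single 0.5 mpk IV dose of each nanoparticle composition, with MC3 and PBS controls alongside. Organ luminescence flux was read 6 h post-dose.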

[2] = Residual lipid levels in rat liver and spleen (UPLC-MS); assay type: in vivo; conditions: for % Lipid Remaining in liver, 48 h, 2 mpk: assuming 300 g rat and 15 g liver
Description: At 48 h liver tissue was harvested for lipid quantification. To pre-weighed tissues, Milli-Q water was added (900 μL water per 100 mg tissue). Tissues were homogenized using an Omni probe homogenizer until uniform. 50 μL of samples and matrix calibration standards were aliquoted into a 96-well plate. 50 μL of blank matrix for matrix blanks and control blanks were aliquoted. 400 μL IS spiking solution were manually added to all samples except matrix blanks. 400 μL of 50:50 ACN:IPA were manually added to matrix-blanks. The plate was covered and the samples vortexed and centrifuged for 5 minutes at >3000 rpm. 200 μL of the samples were transferred into a clean 96-well plate for analysis. Samples were analyzed on a Waters Acquity UPLC using a Higgins Analytical Clipeus C8 column ([…], 30×2.1 mm) and a gradient of either 70-95% or 60-95% (Mobile Phase A: 5 mM ammonium formate in 50:50:1 H2O:MeOH:formic acid; Mobile Phase B: 5 mM ammonium formate in 100:1 MeOH:formic acid) over 1.3 min at […] (column temperature 55° C.). Detection was based on electrospray ionization (ESI) in positive mode using a Sciex API5500 Mass Spectrometer.
The expression of hEPO in rats intravenously administered a nanoparticle composition at a dose of 0.2 mpk or 2.0 mpk was measured at 6 hours. Table 16 summarize the ratio of hEPO expression levels using various nanoparticle compositions as compared to the hEPO expression level using MC3 formulation and the lipid levels in the liver measured 48 hours after administration, as described above. Tables 17 and 18 summarize the lipid levels in the liver and spleen measured 48 hours after administration of Compounds 28, 33, 53, and 54. Liver and spleen levels represent the average values calculated for 3 rats in each group. As is shown in Tables 17 and 18, less than 10% of Compounds 28, 33, 53, and 54 remained in the liver after 48 hours, while greater than 60% of MC3 remained.
Table 19A summarizes the hEPO expression, IP-10 induction, liver and spleen levels, and alanine aminotransferase (ALT) and aspartate aminotransferase (AST) measured upon intravenous administration of formulations including Compounds 48, 49, and 50 to rat at 0.2 and 2 mpk and hEPO mRNA. hEPO concentrations were measured 6 hours after administration, while cytokine induction and liver and spleen levels were measured 48 hours after administration. hEPO and IP-10 concentrations are presented in pg/ml, while liver levels are provided in ng/g. ALT and AST levels are presented in international units.
The expression of hEPO and lipid levels in the liver and spleen in rats intravenously administered a nanoparticle composition at a dose of 0.2 mpk was measured at various time points. Compounds 18 and 25 were selected for comparison with MC3. Lipids were formulated according to the standard MC3 formulation described above. Rats were administered intravenously a single 0.2 mpk dose and expression monitored at 0.25, 0.5, 1, 2, 4, 8, 24, and 48 hours after administration.

[3] = Table 1A, lipid:DSPC:cholesterol:PEG-DMG 50:10:38.5:1.5 mol %
[4] = Table 1B, formulated with hEPO mRNA

Molecule	EE [1, 3] [%]	Total Flux, Femur (modified luciferase)	Total Flux, Liver (modified luciferase)	Total Flux, Lung (modified luciferase)	Total Flux, Spleen (modified luciferase)	% Lipid Remaining in liver, 48 h, 2 mpk ([2]; rats, 48 h) [%]	EE [1, 4] [%]	% EE ([1]; Table 1C) [%]	% EE ([1]; Table 1D, # formulated with hEPO mRNA) [%]	% EE ([1]; Table 1E) [%]	EE ([1]; lipid:DSPC:Chol:PEG-DMG (50:10:38.5:1.5), hEPO mRNA) [%]	EE ([1]; nanoparticle composition with hEPO mRNA (Table 30)) [%]	% dose remaining, liver, 24 h ([2]; Table 19B, liver, 24 h) [%]	% lipid remaining in liver after 48 hours ([2]; liver, 48 hours) [%]	% remaining dose in liver, 48 h ([2]; rats, 48 h) [%]	Lipid remaining in the liver after 48 hours ([2]; rats, intravenous, 0.2 mpk or 2.0 mpk, 48 hours)
CCCCCCCCCN(CCO)CCCCCCCC(=O)OC(CCCCCCCC)CCCCCCCC [Compound 3, Heptadecan-9-yl 8-((2-hydroxyethyl)(nonyl)amino)octanoate]	92.25	7.36E+06	1.39E+10	4.76E+07	1.47E+08	14										
CCCCCCCCCOC(=O)CCCCCCCN(CCO)CCCCCCCC(=O)OC(CCCCCCCC)CCCCCCCC [Compound 18, Heptadecan-9-yl 8-((2-hydroxyethyl)(8-(nonyloxy)-8-oxooctyl)amino)octanoate]		4.68E+06	2.76E+09	1.25E+07	5.15E+07	0.018	96.95									
CCCCCC/C=C\COC(=O)CCCCCCCN(CCO)CCCCCCCC(=O)OC(CCCCCCCC)CCCCCCCC [Compound 24, Heptadecan-9-yl (Z)-8-((2-hydroxyethyl) (8-(non-2-en-1-yloxy)-8-oxooctyl)amino)octanoate]		4.54E+06	4.19E+09	1.71E+07	8.78E+07	0.016										
CCCCCCCCCCCOC(=O)CCCCCN(CCO)CCCCCCCC(=O)OC(CCCCCCCC)CCCCCCCC [Compound 25, Heptadecan-9-yl 8-((2-hydroxyethyl)(6-oxo-6-(undecyloxy)hexyl)amino)octanoate]	95.80	4.40E+06	2.41E+09	1.51E+07	3.11E+07	1.32	97.92									
CCCCCCCCCOC(=O)CCCN(CCO)CCCCCCCC(=O)OC(CCCCCCCC)CCCCCCCC [Compound 26, Heptadecan-9-yl 8-((2-hydroxyethyl)(4-(nonyloxy)-4-oxobutyl)amino) octanoate]		4.67E+06	2.90E+09	1.18E+07	1.56E+07	20										
CCCCCCCCCOC(=O)CCCCCCCN(CCO)CCCCCCCOC(=O)C(CCCCCCCC)CCCCCCCC [Compound 30, 7-((2-Hydroxyethyl)(8-(nonyloxy)-8-oxooctyl)amino)heptyl 2-octyldecanoate]	95.69	6.38E+06	2.68E+09	1.02E+07	3.55E+07	<0.01	96.32									
CCCCCCCCC(C)OC(=O)CCCCCCCN(CCO)CCCCCCCC(=O)OC(CCCCCCCC)CCCCCCCC (centres unmarked) [Compound 48, decan-2-yl 8-((8-(heptadecan-9-yloxy)-8-oxooctyl)(2-hydroxyethyl)amino)octanoate]	96.55		1.08E+10	3.31E+07	3.49E+08	7.22										
CCCCCC=CCC=CCCCCCCCCC(CCCCCCCCC=CCC=CCCCCC)OC(=O)CCCN(C)C (centres unmarked) [MC3, heptatriaconta-6,9,28,31-tetraen-19-yl 4-(dimethylamino)butanoate, reference compound]	97.3	2.56E+06	2.57E+09	1.27E+07	2.85E+07	87	99.01	98.2	98.7	98	97.22	91.66	44	87	74	greater than 60%
Nonyl 8-((6-(heptadecan-9-yloxy)-6-oxohexyl)(2-hydroxyethyl)amino) octanoate [Compound 27]	94.27	2.00E+06	2.16E+09	6.35E+06	3.78E+06											
